What was measured:
Settings in all cases: 48 h
[1] = tested on: P12-Ichikawa; assay: AUC of viability dose-response curve (% viability x log10 dose units); higher = less sensitive
Outline: (§1)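 Library compounds in DMSO were applied for 48 h at 37°C at 11 threefold doses (47 μM to 0.79 nM) to medium-adapted leukemia cells in 1536-well plates holding 500 or 1000 cells/well. Luminescence from CellTiter-Glo One was normalised plate by plate against DMSO and cell-free wells. Area under the curve came from trapezoidal integration of a log-logistic fit, after scaling curves that rose above full viability and discarding those that failed quality control. The fit had four parameters and used log10 doses.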

[2] = tested on: SEM cells; assay: as above
Outline: as §1

[3] = tested on: P12-Ichikawa; assay: cell viability relative to DMSO control; higher = less cytotoxic
Outline: (§2)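 Before seeding, each leukemia line was adapted for at least four passages in each medium. NOMO1 or SEM cells (500 cells/well) and P12-Ichikawa cells (1000 cells/well) went into 1536-well plates at 5 μl, then received library compounds in DMSO by pin dosing across 11 threefold concentrations, 47 μM to 0.79 nM. Readout was CellTiter-Glo One luminescence after 48 h at 37°C, and viability is given as a per-plate percentage of DMSO wells, with cell-free wells as background.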

[4] = tested on: NOMO1; assay: as above
Outline: as §2

[5] = tested on: SEM cells; assay: as above
Outline: as §2

[6] = tested on: NOMO1; assay: AUC of viability dose-response curve (% viability x log10 dose units); higher = less sensitive
Outline: as §1

COC1=C(OCCCN2CCOCC2)C=CC\3=C1/N=C(/NC(=O)C4=CN=C(N)N=C4)N5CC/N=C35
AUC of viability dose-response curve
Settings	HPLM + 10% dialyzed FBS	RPMI 5 mM glucose + 10% FBS	RPMI 5 mM glucose + 10% dialyzed FBS
[1]	385	344	364
[2]	369	360	358

cell viability [%]
Settings	[3]	[4]	[5]
HPLM + 10% dialyzed FBS, 0.000781 µM	110	101	95.2
HPLM + 10% dialyzed FBS, 0.00234 µM	97.6	111	94.2
HPLM + 10% dialyzed FBS, 0.00702 µM	99.5	111	102
HPLM + 10% dialyzed FBS, 0.0211 µM	100	89.4	99.2
HPLM + 10% dialyzed FBS, 0.0632 µM	96	99.4	97.4
HPLM + 10% dialyzed FBS, 0.19 µM	85.8	73.2	77.2
HPLM + 10% dialyzed FBS, 0.569 µM	78.2	55.5	69.4
HPLM + 10% dialyzed FBS, 1.71 µM	73.7	59.4	65.8
HPLM + 10% dialyzed FBS, 5.12 µM	70.1	44.6	57.3
HPLM + 10% dialyzed FBS, 15.4 µM	60.4	42.2	47.6
HPLM + 10% dialyzed FBS, 46.1 µM	60.8	39.8	37.4
RPMI 5 mM glucose + 10% FBS, 0.000781 µM	87.2	83.3	128
RPMI 5 mM glucose + 10% FBS, 0.00234 µM	95.4	90.5	119
RPMI 5 mM glucose + 10% FBS, 0.00702 µM	90.2	84.4	110
RPMI 5 mM glucose + 10% FBS, 0.0211 µM	91.2	78.9	106
RPMI 5 mM glucose + 10% FBS, 0.0632 µM	86.9	83.3	104
RPMI 5 mM glucose + 10% FBS, 0.19 µM	74.7	80.5	97.6
RPMI 5 mM glucose + 10% FBS, 0.569 µM	62.5	71.9	82.4
RPMI 5 mM glucose + 10% FBS, 1.71 µM	56.8	59.6	88.1
RPMI 5 mM glucose + 10% FBS, 5.12 µM	56.3	52	72
RPMI 5 mM glucose + 10% FBS, 15.4 µM	47.1	49.3	63
RPMI 5 mM glucose + 10% FBS, 46.1 µM	42	46.1	42.8
RPMI 5 mM glucose + 10% dialyzed FBS, 0.000781 µM	87.8	94.7	89.3
RPMI 5 mM glucose + 10% dialyzed FBS, 0.00234 µM	95.3	105	101
RPMI 5 mM glucose + 10% dialyzed FBS, 0.00702 µM	98.3	88.9	93.2
RPMI 5 mM glucose + 10% dialyzed FBS, 0.0211 µM	99.1	92.7	95.5
RPMI 5 mM glucose + 10% dialyzed FBS, 0.0632 µM	87.3	77.8	86.3
RPMI 5 mM glucose + 10% dialyzed FBS, 0.19 µM	82.5	63.5	83
RPMI 5 mM glucose + 10% dialyzed FBS, 0.569 µM	67.4	59.6	66.5
RPMI 5 mM glucose + 10% dialyzed FBS, 1.71 µM	62.6	54.1	59.3
RPMI 5 mM glucose + 10% dialyzed FBS, 5.12 µM	58.7	49.6	56.6
RPMI 5 mM glucose + 10% dialyzed FBS, 15.4 µM	49.1	49.1	51.8
RPMI 5 mM glucose + 10% dialyzed FBS, 46.1 µM	45.8	34.6	35.1

Cc1cnc(Nc2ccc(F)cc2Cl)nc1-c1c[nH]c(C(=O)N[C@H](CO)c2cccc(Cl)c2)c1
AUC of viability dose-response curve
Settings	[1]	[2]	[6]
HPLM + 10% dialyzed FBS	389	467	353
RPMI 5 mM glucose + 10% FBS	384	452	335
RPMI 5 mM glucose + 10% dialyzed FBS	411	443	364

[5], HPLM + 10% dialyzed FBS
Settings	cell viability [%]
0.000781 µM	109
0.00234 µM	125
0.00702 µM	114
0.0211 µM	137
0.0632 µM	126
0.19 µM	134
0.569 µM	134
1.71 µM	125
5.12 µM	136
15.4 µM	121
46.1 µM	84.9

Cc1ccc2c(=O)c3cccc(CC(=O)O)c3oc2c1C
AUC of viability dose-response curve
Settings	[1]	[2]	[6]
HPLM + 10% dialyzed FBS	471	447	435
RPMI 5 mM glucose + 10% FBS	464	440	471
RPMI 5 mM glucose + 10% dialyzed FBS	460	449	429

O=C(N[C@H](CO)[C@H](O)c1ccc([N+](=O)[O-])cc1)C(Cl)Cl
AUC of viability dose-response curve
Settings	[1]	[2]	[6]
HPLM + 10% dialyzed FBS	471	474	477
RPMI 5 mM glucose + 10% FBS	466	475	467
RPMI 5 mM glucose + 10% dialyzed FBS	462	475	467

[5], HPLM + 10% dialyzed FBS
Settings	cell viability [%]
0.000781 µM	115
0.00234 µM	119
0.00702 µM	125
0.0211 µM	121
0.0632 µM	126
0.19 µM	125
0.569 µM	128
1.71 µM	132
5.12 µM	128
15.4 µM	118
46.1 µM	113

CCCCC(C)(C)[C@H](O)/C=C/[C@H]1[C@H](O)CC(=O)[C@@H]1C/C=C\CCCC(=O)O
AUC of viability dose-response curve
Settings	[1]	[2]	[6]
HPLM + 10% dialyzed FBS	447	401	437
RPMI 5 mM glucose + 10% FBS	437	407	453
RPMI 5 mM glucose + 10% dialyzed FBS	442	403	431

[5], RPMI 5 mM glucose + 10% FBS
Settings	cell viability [%]
0.000781 µM	101
0.00234 µM	123
0.00702 µM	131
0.0211 µM	120
0.0632 µM	119
0.19 µM	137
0.569 µM	117
1.71 µM	130
5.12 µM	51.5
15.4 µM	78.2
46.1 µM	13.4

C=CC(=O)Nc1cc(NC(=O)c2ccc(C)c(NC(=O)c3ccno3)c2)cc(C(F)(F)F)c1
AUC of viability dose-response curve
Settings	[1]	[2]	[6]
HPLM + 10% dialyzed FBS	459	423	431
RPMI 5 mM glucose + 10% FBS	454	451	457
RPMI 5 mM glucose + 10% dialyzed FBS	452	438	467

COC1=CC=C2[C@H]3CC[C@]4(C)[C@H](CC[C@H]4[C@@H]3CCC2=C1)NCCCCCCN5C(=O)\C=C/C5=O
AUC of viability dose-response curve
Settings	[1]	[2]	[6]
HPLM + 10% dialyzed FBS	456	472	434
RPMI 5 mM glucose + 10% FBS	448	459	444
RPMI 5 mM glucose + 10% dialyzed FBS	444	408	462

OC1=CC=C(C=C1)\C2=C(O)\C(=O)C3=C(O2)C=C(O)C=C3O
AUC of viability dose-response curve
Settings	[1]	[2]	[6]
HPLM + 10% dialyzed FBS	465	466	443
RPMI 5 mM glucose + 10% FBS	437	469	458
RPMI 5 mM glucose + 10% dialyzed FBS	449	470	466

[5], RPMI 5 mM glucose + 10% FBS
Settings	cell viability [%]
0.000781 µM	119
0.00234 µM	100
0.00702 µM	116
0.0211 µM	127
0.0632 µM	127
0.19 µM	133
0.569 µM	135
1.71 µM	128
5.12 µM	127
15.4 µM	123
46.1 µM	87.2

Cc1cc(Nc2cc(N3CCN(C)CC3)nc(Sc3ccc(NC(=O)C4CC4)cc3)n2)[nH]n1
AUC of viability dose-response curve
Settings	[1]	[2]	[6]
HPLM + 10% dialyzed FBS	298	304	389
RPMI 5 mM glucose + 10% FBS	302	286	390
RPMI 5 mM glucose + 10% dialyzed FBS	315	286	376

C/C=C/C(=O)N(CC)c1ccccc1C
AUC of viability dose-response curve
Settings	[1]	[2]	[6]
HPLM + 10% dialyzed FBS	458	434	393
RPMI 5 mM glucose + 10% FBS	470	465	431
RPMI 5 mM glucose + 10% dialyzed FBS	432	428	399

O=c1cc(-c2ccc(O)c(O)c2)oc2cc(O)cc(O)c12
AUC of viability dose-response curve
Settings	[1]	[2]	[6]
HPLM + 10% dialyzed FBS	473	449	458
RPMI 5 mM glucose + 10% FBS	464	454	461
RPMI 5 mM glucose + 10% dialyzed FBS	467	459	461

[5], HPLM + 10% dialyzed FBS
Settings	cell viability [%]
0.000781 µM	107
0.00234 µM	113
0.00702 µM	126
0.0211 µM	127
0.0632 µM	134
0.19 µM	134
0.569 µM	142
1.71 µM	152
5.12 µM	156
15.4 µM	129
46.1 µM	129
